Results as given in patent US9592186B2, “Topical compositions and methods for skin lightening” (Avon Products, Inc., priority 2014, dated 2017).

System: Human epidermal melanocytes from dark-pigmented skin
Experiment: Melanin absorbance (pigmentation) in cultured human epidermal melanocytes after 8 days of incubation
Format: cell-based
Conditions: for effect on pigmentation (in words): summary of Table 1; for % Pigmentation (percent change of melanin absorbance relative to vehicle control): 8 days incubation, absorption at 405 nm
Experimental: The Compound of Formula (II) was examined for its ability to reduce pigmentation in vitro in human melanocytes. Human epidermal melanocytes from dark-pigmented skin were seeded in 6-well dishes and grown using commercially available Medium 254, a sterile, liquid medium prepared with 200 μM calcium chloride for the culture of human epidermal melanocytes, supplemented with 1% Penicillin/Streptomycin and 1% Human Melanocyte Growth Supplement. Corresponding controls were maintained without histamine, Diphenylhydramine HCl and Compound II. Four replicates were tested for each combination. After 8 days of incubation, melanin was collected and processed by washing the wells with IX phosphate-buffered saline (PBS), followed by addition of 200 μL of 2M NaOH to three of the four replicates, which are then scraped, pooled and boiled at 80° C. for an hour. Melanin absorption was then measured at 405 nm using a spectrophotometer.
A larger (positive or negative) percent change indicates a larger increase or reduction in melanin.

Compound	effect on pigmentation (in words) (at both concentrations tested (0.001% and 0.0001%))	% Pigmentation (percent change of melanin absorbance relative to vehicle control) (concentration 0.0001%)	% Pigmentation (percent change of melanin absorbance relative to vehicle control) (concentration 0.001%)	effect on pigmentation (in words) (5 μM)
CC(=O)c1ccc(OCC(=O)NCC(c2ccco2)N2CCCCC2)cc1 (stereo not shown) [Compound (II)]	effective to reduce pigmentation	−10.40%	−40.83%	–
NCCc1c[nH]cn1 [Histamine, reference compound]	–	–	–	significant increase in pigmentation
